Blank lines part the entries; values can stand above or below the molecule they belong to.
Columns and labels:
[1] = system: EGF receptor tyrosine kinase; settings: Fry et al., Science, 1994, 265, 1093; cited from earlier work
[2] = molecular target: T1, EGF receptor tyrosine kinase (Homo sapiens, UniProt P00533); test: in vitro inhibition of the enzyme EGF receptor tyrosine kinase (Test (a)); format: biochemical; settings: receptor tyrosine kinase from A-431 cells
T1 construct: Receptor tyrosine kinase was obtained in partially purified form from A-431 cells; endogenous in cells; host or cells: A-431 cells (human vulval carcinoma), Triton X-100 solubilised membrane fraction
T1 sequence (P00533 25-1210): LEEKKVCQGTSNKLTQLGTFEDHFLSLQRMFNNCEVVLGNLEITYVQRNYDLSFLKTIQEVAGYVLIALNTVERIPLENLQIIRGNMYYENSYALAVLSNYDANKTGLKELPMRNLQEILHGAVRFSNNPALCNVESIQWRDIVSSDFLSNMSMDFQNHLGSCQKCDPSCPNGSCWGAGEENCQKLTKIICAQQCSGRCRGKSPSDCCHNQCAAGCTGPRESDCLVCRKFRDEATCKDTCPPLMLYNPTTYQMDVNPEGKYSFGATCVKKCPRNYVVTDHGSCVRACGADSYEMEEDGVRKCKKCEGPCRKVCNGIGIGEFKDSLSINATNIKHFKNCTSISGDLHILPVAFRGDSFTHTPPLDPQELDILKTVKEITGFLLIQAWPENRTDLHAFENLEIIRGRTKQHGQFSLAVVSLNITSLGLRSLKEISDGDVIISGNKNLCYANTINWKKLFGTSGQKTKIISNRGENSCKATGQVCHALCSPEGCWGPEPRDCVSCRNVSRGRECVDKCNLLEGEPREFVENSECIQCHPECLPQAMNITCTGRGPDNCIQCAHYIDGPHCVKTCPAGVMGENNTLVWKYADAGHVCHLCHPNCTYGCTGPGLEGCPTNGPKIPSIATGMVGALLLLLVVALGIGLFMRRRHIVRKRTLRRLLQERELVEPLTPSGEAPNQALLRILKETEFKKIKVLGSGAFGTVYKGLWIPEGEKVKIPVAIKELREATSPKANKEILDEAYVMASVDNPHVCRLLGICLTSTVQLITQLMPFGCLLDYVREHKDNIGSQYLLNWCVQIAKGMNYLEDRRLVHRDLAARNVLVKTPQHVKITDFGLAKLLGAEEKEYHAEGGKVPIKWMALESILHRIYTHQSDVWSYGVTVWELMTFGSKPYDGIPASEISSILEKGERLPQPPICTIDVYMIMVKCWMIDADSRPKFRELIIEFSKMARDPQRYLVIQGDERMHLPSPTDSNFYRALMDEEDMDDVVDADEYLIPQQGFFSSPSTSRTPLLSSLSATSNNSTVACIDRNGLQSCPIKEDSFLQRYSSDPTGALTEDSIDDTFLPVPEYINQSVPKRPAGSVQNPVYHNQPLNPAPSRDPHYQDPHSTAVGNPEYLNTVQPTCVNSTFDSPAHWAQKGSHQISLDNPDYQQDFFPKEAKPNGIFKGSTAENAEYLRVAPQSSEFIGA
T1 sequence (P01133 971-1023 partner limits assumed): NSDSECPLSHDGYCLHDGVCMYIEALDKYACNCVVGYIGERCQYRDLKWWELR
Description: (a) An in vitro assay which determines the ability of a test compound to inhibit the enzyme EGF receptor tyrosine kinase. Receptor tyrosine kinase was obtained in partially purified form from A-431 cells (derived from human vulval carcinoma) by the procedures described below which are related to those described by Carpenter et al., J. Biol. Chem., 1979, 254, 4884, Cohen et al., J. Biol. Chem., 1982, 257, 1523 and by Braun et al., J. Biol. Chem., 1984, 259, 2051.
A-431 cells were grown to confluence using Dulbecco's modified Eagle's medium DMEM) containing 5% fetal calf serum (FCS). The obtained cells were homogenised in a hypotonic borate/EDTA buffer at pH 10.1. The homogenate was centrifuged at 400 g for 10 minutes at 0°-4° C. The supernatant was centrifuged at 25,000 g for 30 minutes at 0°-4° C. […]
The test compound/EGF mixture solution (5 μl) was added to the test enzyme solution (10 μl) and the mixture was incubated at 0°-4° C. for 30 minutes. […] Radioactivity present in the filter paper was measured using a liquid scintillation counter (Sequence A). […]
Receptor tyrosine kinase inhibition was calculated as follows: [formula]
The extent of inhibition was then determined at a range of concentrations of test compound to give an IC50 value.

[3] = system: human naso-pharyngeal cancer cell line KB; test: in vitro inhibition of EGF-stimulated growth of human naso-pharyngeal cancer cell line KB (Test (b)); format: cell-based; settings: 72 h, EGF 10 ng/ml, 3 days, MTT, read-out: IC50 in Test (b), inhibition of EGF-stimulated growth of KB cells
Description: (b) An in vitro assay which determines the ability of a test compound to inhibit the EGF-stimulated growth of the human naso-pharyngeal cancer cell line KB.
KB cells were seeded into wells at a density of 1×10^4 -1.5×10^4 cells per well and grown for 24 hours in DMEM supplemented with 5% FCS (charcoal-stripped). Cell growth was determined after incubation for 3 days by the extent of metabolism of MTT tetrazolium dye to furnish a bluish colour. Cell growth was then determined in the presence of EGF (10 ng/ml) or in the presence of EGF (10 ng/ml) and a test compound at a range of concentrations. An IC50 value could then be calculated.

[4] = system: human mammary carcinoma which expresses EGF receptor tyrosine kinase; settings: athymic nude mice; cited from earlier work
[5] = system: another carcinoma which does not express EGF receptor tyrosine kinase; settings: cited from earlier work

Compound: COc1cc2ncnc(Nc3cccc(Br)c3)c2cc1OC [4-(3-bromoanilino)-6,7-dimethoxyquinazoline]
- inhibition of EGF receptor tyrosine kinase (in words) [1]: highly potent inhibitor

- IC50 [2]: 42 nM
- IC50 [3]: 120 nM
Compound: Fc1ccc(Nc2ncnc3cc(-c4csc(CN5CCOCC5)c4)ccc23)cc1Cl [Example 5, 4-(3-chloro-4-fluoroanilino)-7-(5-morpholinomethylthien-3-yl)quinazoline]

Compound: O=CN/C=C/c1cc(O)ccc1O [erbstatin]
- attenuation of growth of a transplanted human mammary carcinoma [4]: specifically attenuates the growth
- effect on the growth of another carcinoma [5]: without effect

Reference: patent publication US5814630A, “Quinazoline compounds” (Zeneca Limited, priority 1996, dated 1998)
